From PubChem BioAssay AID1259407 (Chemical Carcinogenesis Research Information System (CCRIS), 2018)
Calls of active or inactive are those of the source. How the calls were made is not given here.

Tested on: CCRIS mutagenicity, Ames/micronucleus/aberration tests
Assay: CCRIS mutagenicity studies
[1] = Test System: AMES SALMONELLA TYPHIMURIUM, Strain/Indicator: TA98, Metabolic Activation: NONE, Method: STANDARD PLATE
[2] = Test System: AMES SALMONELLA TYPHIMURIUM, Strain/Indicator: TA100, Metabolic Activation: NONE, Method: STANDARD PLATE
[3] = Test System: AMES SALMONELLA TYPHIMURIUM, Strain/Indicator: TA100, Metabolic Activation: S-9, Method: STANDARD PLATE
[4] = Test System: AMES SALMONELLA TYPHIMURIUM, Strain/Indicator: TA1535, Metabolic Activation: NONE, Method: STANDARD PLATE
[5] = Test System: AMES SALMONELLA TYPHIMURIUM, Strain/Indicator: TA98, Metabolic Activation: NONE, Method: PREINCUBATION
[6] = Test System: AMES SALMONELLA TYPHIMURIUM, Strain/Indicator: TA100, Metabolic Activation: NONE, Method: PREINCUBATION
[7] = Test System: AMES SALMONELLA TYPHIMURIUM, Strain/Indicator: TA98, Metabolic Activation: RAT, LIVER, S-9, AROCLOR 1254, Method: STANDARD PLATE
[8] = Test System: AMES SALMONELLA TYPHIMURIUM, Strain/Indicator: TA1537, Metabolic Activation: NONE, Method: STANDARD PLATE
[9] = Test System: AMES SALMONELLA TYPHIMURIUM, Strain/Indicator: TA98, Metabolic Activation: HAMSTER, LIVER, S-9, AROCLOR 1254 (10%), Method: PREINCUBATION
[10] = Test System: AMES SALMONELLA TYPHIMURIUM, Strain/Indicator: TA98, Metabolic Activation: RAT, LIVER, S-9, AROCLOR 1254 (10%), Method: PREINCUBATION
[11] = Test System: AMES SALMONELLA TYPHIMURIUM, Strain/Indicator: TA100, Metabolic Activation: HAMSTER, LIVER, S-9, AROCLOR 1254 (10%), Method: PREINCUBATION
[12] = Test System: AMES SALMONELLA TYPHIMURIUM, Strain/Indicator: TA100, Metabolic Activation: RAT, LIVER, S-9, AROCLOR 1254 (10%), Method: PREINCUBATION
[13] = Test System: AMES SALMONELLA TYPHIMURIUM, Strain/Indicator: TA1535, Metabolic Activation: HAMSTER, LIVER, S-9, AROCLOR 1254 (10%), Method: PREINCUBATION
[14] = Test System: AMES SALMONELLA TYPHIMURIUM, Strain/Indicator: TA1535, Metabolic Activation: NONE, Method: PREINCUBATION
[15] = Test System: AMES SALMONELLA TYPHIMURIUM, Strain/Indicator: TA1535, Metabolic Activation: RAT, LIVER, S-9, AROCLOR 1254 (10%), Method: PREINCUBATION
[16] = Test System: AMES SALMONELLA TYPHIMURIUM, Strain/Indicator: TA1537, Metabolic Activation: HAMSTER, LIVER, S-9, AROCLOR 1254 (10%), Method: PREINCUBATION
[17] = Test System: AMES SALMONELLA TYPHIMURIUM, Strain/Indicator: TA1537, Metabolic Activation: NONE, Method: PREINCUBATION
[18] = Test System: AMES SALMONELLA TYPHIMURIUM, Strain/Indicator: TA1537, Metabolic Activation: RAT, LIVER, S-9, AROCLOR 1254 (10%), Method: PREINCUBATION

O=[N+]([O-])c1ccc(/C=C/c2cccc([N+](=O)[O-])c2)cc1
mutagenic call (Test System: AMES SALMONELLA TYPHIMURIUM, Strain/Indicator: TA98 (NR), Metabolic Activation: NONE, Method: STANDARD PLATE): active; positive | mutagenic call (Test System: AMES SALMONELLA TYPHIMURIUM, Strain/Indicator: TA98 (NR), Metabolic Activation: S-9, Method: STANDARD PLATE): inactive; negative | mutagenic call [1]: active; positive | mutagenic call (Test System: AMES SALMONELLA TYPHIMURIUM, Strain/Indicator: TA98, Metabolic Activation: S-9, Method: STANDARD PLATE): active; positive | mutagenic call (Test System: AMES SALMONELLA TYPHIMURIUM, Strain/Indicator: TA100 (NR), Metabolic Activation: NONE, Method: STANDARD PLATE): inactive; negative | mutagenic call (Test System: AMES SALMONELLA TYPHIMURIUM, Strain/Indicator: TA100 (NR), Metabolic Activation: S-9, Method: STANDARD PLATE): inactive; negative | mutagenic call [2]: active; positive | mutagenic call [3]: active; positive

CN(C=O)N=O
mutagenic call [4]: active; positive | mutagenic call (Test System: E. COLI, Strain/Indicator: WU3610, Metabolic Activation: NONE, Method: SUSPENSION/PLATE): active; positive

CN(C)C(=N)N(C)C
mutagenic call [5]: inactive; negative | mutagenic call (Test System: AMES SALMONELLA TYPHIMURIUM, Strain/Indicator: TA98, Metabolic Activation: RAT, LIVER, S-9, PCB, Method: PREINCUBATION): inactive; negative | mutagenic call [6]: inactive; negative | mutagenic call (Test System: AMES SALMONELLA TYPHIMURIUM, Strain/Indicator: TA100, Metabolic Activation: RAT, LIVER, S-9, PCB, Method: PREINCUBATION): inactive; negative

NNc1nc(-c2ccc(N)cc2)cs1
mutagenic call (Test System: AMES SALMONELLA TYPHIMURIUM, Strain/Indicator: TA98, Metabolic Activation: RAT, LIVER, S-9, KC500 OR PHENOBARBITAL, Method: LIQUID SUSPENSION): active; positive | mutagenic call (Test System: AMES SALMONELLA TYPHIMURIUM, Strain/Indicator: TA100, Metabolic Activation: RAT, LIVER, S-9, KC500 OR PHENOBARBITAL, Method: LIQUID SUSPENSION): active; positive

Cc1cc(=O)oc2cc3c(cc12)C1(C)OOC1(C)O3 (centres undefined)
mutagenic call [6]: active; positive

CC(=O)Nc1ccc(Sc2ccccc2)cc1
mutagenic call [1]: inactive; negative | mutagenic call [7]: active; positive

CC(C)CC(=O)Nc1snc2ccc(Cl)cc12
mutagenic call [2]: inactive; negative | mutagenic call [3]: inactive; negative | mutagenic call [8]: inactive; negative | mutagenic call (Test System: AMES SALMONELLA TYPHIMURIUM, Strain/Indicator: TA1537, Metabolic Activation: S-9, Method: STANDARD PLATE): inactive; negative

O=c1ccc(=O)[nH][nH]1
mutagenic call (End Point: IN VITRO CHROMOSOMAL ABERRATIONS, Test System: HUMAN PERIPHERAL BLOOD LYMPHOCYTES, Metabolic Activation: NONE): inactive; negative | mutagenic call (End Point: IN VITRO MICRONUCLEUS, Test System: HUMAN PERIPHERAL BLOOD LYMPHOCYTES, Metabolic Activation: NONE): inactive; negative | mutagenic call (End Point: IN VITRO MICRONUCLEUS, Test System: HUMAN PERIPHERAL BLOOD LYMPHOCYTES, Metabolic Activation: S-9): inactive; negative | mutagenic call [9]: inactive; negative | mutagenic call [5]: inactive; negative | mutagenic call [10]: inactive; negative | mutagenic call [11]: inactive; negative | mutagenic call [6]: inactive; negative | mutagenic call [12]: inactive; negative | mutagenic call [13]: inactive; negative | mutagenic call [14]: inactive; negative | mutagenic call [15]: inactive; negative | mutagenic call [16]: inactive; negative | mutagenic call [17]: inactive; negative | mutagenic call [18]: inactive; negative

CC(=O)n1ncc(Cl)c(Cl)c1=O
mutagenic call [1]: inactive; negative | mutagenic call [7]: inactive; negative | mutagenic call [2]: inactive; negative | mutagenic call (Test System: AMES SALMONELLA TYPHIMURIUM, Strain/Indicator: TA100, Metabolic Activation: RAT, LIVER, S-9, AROCLOR 1254, Method: STANDARD PLATE): inactive; negative | mutagenic call [4]: inactive; negative | mutagenic call (Test System: AMES SALMONELLA TYPHIMURIUM, Strain/Indicator: TA1535, Metabolic Activation: RAT, LIVER, S-9, AROCLOR 1254, Method: STANDARD PLATE): inactive; negative | mutagenic call [8]: inactive; negative | mutagenic call (Test System: AMES SALMONELLA TYPHIMURIUM, Strain/Indicator: TA1537, Metabolic Activation: RAT, LIVER, S-9, AROCLOR 1254, Method: STANDARD PLATE): inactive; negative

Nc1cc([N+](=O)[O-])c(C(=O)O)c([N+](=O)[O-])c1
mutagenic call (End Point: In vitro chromosomal aberrations, Test System: V79 Chinese hamster fibroblasts, Metabolic Activation: None): inactive; negative | mutagenic call (End Point: In vitro micronucleus, Test System: HepG2 human hepatoma cells, Metabolic Activation: None): active; positive | mutagenic call (Test System: Ames Salmonella typhimurium, Strain/Indicator: TA98, Metabolic Activation: None, Method: Standard plate): active; positive | mutagenic call (Test System: Ames Salmonella typhimurium, Strain/Indicator: TA98, Metabolic Activation: Rat, Liver, S-9, Method: Standard plate): active; positive | mutagenic call (Test System: Ames Salmonella typhimurium, Strain/Indicator: TA98NR, Metabolic Activation: None, Method: Standard plate): active; positive, ta98nr is the nitroreductase-deficient derivative of ta98. | mutagenic call (Test System: Ames Salmonella typhimurium, Strain/Indicator: TA100, Metabolic Activation: None, Method: Standard plate): active; positive | mutagenic call (Test System: Ames Salmonella typhimurium, Strain/Indicator: TA100, Metabolic Activation: Rat, Liver, S-9, Method: Standard plate): active; positive

CCOc1ccc(N=Nc2ccc(-c3ccc(N=Nc4c(O)ccc5cc(S(=O)(=O)O)cc(S(=O)(=O)O)c45)c(C)c3)cc2C)cc1
mutagenic call [9]: inactive; negative | mutagenic call [5]: inactive; negative | mutagenic call [10]: inactive; negative | mutagenic call [11]: inactive; negative | mutagenic call [6]: inactive; negative | mutagenic call [12]: inactive; negative | mutagenic call [13]: inactive; negative | mutagenic call [14]: inactive; negative | mutagenic call [15]: inactive; negative | mutagenic call [16]: inactive; negative | mutagenic call [17]: inactive; negative | mutagenic call [18]: inactive; negative | mutagenic call (Test System: AMES SALMONELLA TYPHIMURIUM, Strain/Indicator: TA1538, Metabolic Activation: RAT, LIVER, S-9, AROCLOR 1254, Method: STANDARD PLATE): active; positive

COP1(=S)OCc2ccccc2O1 (centres undefined)
mutagenic call [2]: active; positive | mutagenic call (Test System: AMES SALMONELLA TYPHIMURIUM, Strain/Indicator: TA100, Metabolic Activation: S-9 MIX, Method: STANDARD PLATE): active; positive

C=C1C[C@@]23CC[C@H]4[C@@](C)(CCC[C@@]4(C)C(=O)O[C@@H]4O[C@H](CO)[C@@H](O)[C@H](O)[C@H]4O)[C@@H]2CC[C@]1(O[C@@H]1O[C@H](CO)[C@@H](O)[C@H](O[C@@H]2O[C@H](CO)[C@@H](O)[C@H](O)[C@H]2O)[C@H]1O[C@@H]1O[C@@H](C)[C@H](O)[C@@H](O)[C@H]1O)C3
mutagenic call (Test System: AMES SALMONELLA TYPHIMURIUM, Strain/Indicator: TM677, Metabolic Activation: RAT, LIVER, S-9, AROCLOR 1254, Method: PREINCUBATION): inactive; negative
